Measurements reported in ChEMBL document CHEMBL3112432, “Synthesis of 5α-cholestan-6-one derivatives and their inhibitory activities of NO production in activated microglia: discovery of a novel neuroinflammation inhibitor” (Bioorg Med Chem Lett, 2014).
The source made the active and inactive calls. The rule behind the calls is not given here.

Tests used:
[1] = Antiinflammatory activity in LPS-stimulated mouse BV2 cells assessed as inhibition of NO production at 40 uM after 24 hrs by Griess method relative to control; type: functional; settings: BV-2, 24 h
[2] = Cytotoxicity against mouse BV2 cells assessed as cell viability at 40 uM after 24 hrs by MTT assay relative to control; type: cell-based, BV-2; settings: read-out: Activity
[3] = test system: BV-2; experiment: Antiinflammatory activity in LPS-stimulated mouse BV2 cells assessed as inhibition of NO production after 24 hrs by Griess method; type: functional, cell-based
[4] = test system: BV-2; experiment: Antiinflammatory activity in mouse BV2 cells assessed as inhibition of LPS-stimulated iNOS protein expression at 40 uM preincubated for 30 mins followed by LPS-stimulation measured after 16 hrs by Western blotting analysis; type: functional, cell-based
[5] = test system: Mus musculus; experiment: Neuroprotective activity in mouse middle cerebral artery occlusion model assessed as reduction in activated microglial cells in medial periphery of cortical infarct area at 30 mg/kg, ip administered 1 hr prior to onset of ischemia measured after 24 hrs by Iba-1 staining-based microscopic analysis; type: functional, organism-based; set-up: dose 30 mg/kg
[6] = test system: BV-2; experiment: Antiinflammatory activity in mouse BV2 cells assessed as inhibition of LPS-stimulated COX-2 protein expression at 40 uM preincubated for 30 mins followed by LPS-stimulation measured after 16 hrs by Western blotting analysis; type: functional, cell-based
[7] = test system: BV-2; experiment: Antiinflammatory activity in mouse BV2 cells assessed as inhibition of LPS-stimulated iNOS mRNA expression preincubated for 30 mins followed by LPS-stimulation by RT-PCR analysis; type: functional, cell-based
[8] = test system: BV-2; experiment: Antiinflammatory activity in mouse BV2 cells assessed as inhibition of LPS-stimulated COX-2 mRNA expression preincubated for 30 mins followed by LPS-stimulation by RT-PCR analysis; type: functional, cell-based
[9] = test system: Mus musculus; experiment: Neuroprotective activity in ip dosed mouse middle cerebral artery occlusion model assessed as reduction in infarction volume administered 1 hr prior to onset of ischemia measured after 24 hrs by TTC staining-based microscopic analysis; type: functional, organism-based
[10] = test system: BV-2; experiment: Antiinflammatory activity in mouse BV2 cells assessed as inhibition of LPS-stimulated IL-1beta mRNA expression preincubated for 30 mins followed by LPS-stimulation by RT-PCR analysis; type: functional, cell-based
[11] = test system: BV-2; experiment: Antiinflammatory activity in mouse BV2 cells assessed as inhibition of LPS-stimulated TNF-alpha mRNA expression preincubated for 30 mins followed by LPS-stimulation by RT-PCR analysis; type: functional, cell-based

| Compound | inhibition at 40 µM [1] [%] | viability at 24 h, 40 µM [2] [%] | inhibition [3] | also measured |
| --- | --- | --- | --- | --- |
| COC(=O)CC[C@@H](C)[C@H]1CC[C@H]2[C@@H]3[C@H](O)C(=O)[C@H]4C[C@@H](O)CC[C@]4(C)[C@H]3CC[C@]12C | 71.1 | 96.3 | Dose-dependent effect | – |
| COC(=O)CC[C@@H](C)[C@H]1CC[C@H]2[C@@H]3[C@H](O)C(=O)[C@H]4C[C@H](O)CC[C@]4(C)[C@H]3CC[C@]12C | 73.6 | 95.4 | Dose-dependent effect | inhibition [4]: Active; Activity [5]: Active; inhibition [6]: Active; inhibition [7]: Dose-dependent effect; inhibition [8]: Dose-dependent effect; Activity [9]: Dose-dependent effect; inhibition [10]: Dose-dependent effect; inhibition [11]: Dose-dependent effect |
| C[C@H]([C@H](O)CO)[C@H]1CC[C@H]2[C@@H]3[C@H](F)C(=O)[C@H]4C[C@H](O)CC[C@]4(C)[C@H]3CC[C@]12C | 68.1 | 95.1 | Dose-dependent effect | – |
| COC(=O)CC[C@@H](C)[C@H]1CC[C@H]2[C@@H]3[C@H](O)C(=O)[C@H]4C[C@@H](F)CC[C@]4(C)[C@H]3CC[C@]12C | 64.2 | 92.4 | Dose-dependent effect | – |
| C[C@H]([C@H](O)CO)[C@H]1CC[C@H]2[C@@H]3CC(=O)[C@H]4C[C@H](O)[C@H](O)C[C@]4(C)[C@H]3CC[C@]12C | 22.6 | 94 | – | – |
| C=C[C@@H](C)[C@H]1CC[C@H]2[C@@H]3CC(=O)[C@H]4C[C@H](O)CC[C@]4(C)[C@H]3CC[C@]12C | 24.5 | 96.4 | – | – |
| C[C@]12CC[C@H](O)CC1=CC[C@@H]1[C@@H]2CC[C@]2(C)C(=O)CC[C@@H]12 [PRASTERONE] | 55.3 | 99.1 | – | – |
| COC(=O)CC[C@@H](C)[C@H]1CC[C@H]2[C@@H]3CC(=O)[C@H]4C[C@@H]5O[C@@H]5C[C@]4(C)[C@H]3CC[C@]12C | 48.6 | 99.5 | – | – |
| COC(=O)CC[C@@H](C)[C@H]1CC[C@H]2[C@@H]3CC(=O)[C@H]4C[C@H](O)CC[C@]4(C)[C@H]3CC[C@]12C | 39.4 | 87.7 | – | – |
| COC(=O)CC[C@@H](C)[C@H]1CC[C@H]2[C@@H]3CC(=O)[C@H]4C[C@H](O)[C@H](O)C[C@]4(C)[C@H]3CC[C@]12C | 74.1 | 81.1 | – | – |
| COC(=O)CC[C@@H](C)[C@H]1CC[C@H]2[C@@H]3[C@H](O)C(=O)[C@H]4C[C@H](O)[C@@H](F)C[C@]4(C)[C@H]3CC[C@]12C | 75.1 | 80.5 | – | – |
| C=C[C@@H](C)[C@H]1CC[C@H]2[C@@H]3[C@H](F)C(=O)[C@H]4C[C@H](O)CC[C@]4(C)[C@H]3CC[C@]12C | 44.5 | 76.6 | – | – |
| C[C@H]([C@H](O)CO)[C@H]1CC[C@H]2[C@@H]3[C@H](F)C(=O)[C@H]4C[C@@H](F)CC[C@]4(C)[C@H]3CC[C@]12C | 35.9 | 81.7 | – | – |
| C[C@H]([C@H](O)CO)[C@H]1CC[C@H]2[C@@H]3[C@H](O)C(=O)[C@H]4C[C@H](O)CC[C@]4(C)[C@H]3CC[C@]12C | 47.1 | 95.7 | – | – |
| C=C[C@@H](C)[C@H]1CC[C@H]2[C@@H]3[C@H](O)C(=O)[C@H]4C[C@@H](F)CC[C@]4(C)[C@H]3CC[C@]12C | 43.2 | 87 | – | – |
| COC(=O)CC[C@@H](C)[C@H]1CC[C@H]2[C@@H]3CC(=O)[C@H]4C[C@H](O)[C@@H](F)C[C@]4(C)[C@H]3CC[C@]12C | 46.1 | 95.8 | – | – |
| COC(=O)CC[C@@H](C)[C@H]1CC[C@H]2[C@@H]3[C@H](F)C(=O)[C@H]4C[C@H](O)[C@@H](F)C[C@]4(C)[C@H]3CC[C@]12C | 70 | 96.2 | Dose-dependent effect | – |
| COC(=O)CC[C@@H](C)[C@H]1CC[C@H]2[C@@H]3[C@H](F)C(=O)[C@H]4C[C@@H](F)CC[C@]4(C)[C@H]3CC[C@]12C | 39.1 | 92.2 | – | – |
| COC(=O)CC[C@@H](C)[C@H]1CC[C@H]2[C@@H]3CC(=O)[C@H]4C[C@H](O)[C@@H](Br)C[C@]4(C)[C@H]3CC[C@]12C | 42.7 | 91.4 | – | – |
| C[C@H]([C@H](O)CO)[C@H]1CC[C@H]2[C@@H]3CC(=O)[C@H]4C[C@H](O)CC[C@]4(C)[C@H]3CC[C@]12C | 60.4 | 95.9 | Dose-dependent effect | – |
